Experimental data: PubChem BioAssay AID1963971 (Molecular Pharmacology Branch, DTP, NCI, 2024)

Test system: 953936-095-R-J2-PDC spheroids with HUVEC/MSC, viability
Experiment: Anticancer human tumor 953936-095-R-J2-PDC patient-derived cervical squamous cell carcinoma cell line growth inhibition [PI3K]
Conditions: for IC50: curve of first compound; for viability, T/C: stronger effect = lower value
Procedure, shortened: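 Tumor cells grown as multi-cell spheroids with HUVEC endothelial cells and MSC fibroblast-like stroma were treated with targeted agents combined with inavolisib, alpelisib, duvelisib or copanlisib. Doses fell in half-log steps from near clinical Cmax, else from 10 microM. Viability was measured.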
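Also: spheroids exposed to compounds for seven days before read-out.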

SMILES: CC(=O)c1c(C)c2cnc(Nc3ccc(N4CCNCC4)cn3)nc2n(C2CCCC2)c1=O + COc1c(OCCCN2CCOCC2)ccc2c3n(c(=NC(=O)c4cnc(N)nc4)nc12)CCN3
- IC50 (second compound 0.00316 µM): > 100 nM
- IC50 (second compound 0.01 µM): > 100 nM
- IC50 (second compound 0.0316 µM): < 0.316 nM
- IC50 (second compound 0.1 µM): < 0.316 nM
- IC50 (second compound 0.316 µM): < 0.316 nM
- IC50 (second compound 1 µM): < 0.316 nM
- viability, T/C (second compound 0.00316 µM, first compound 0.000316 µM): 87.4%
- viability, T/C (second compound 0.00316 µM, first compound 0.001 µM): 85.6%
- viability, T/C (second compound 0.00316 µM, first compound 0.00316 µM): 105%
- viability, T/C (second compound 0.00316 µM, first compound 0.01 µM): 88.4%
- viability, T/C (second compound 0.00316 µM, first compound 0.0316 µM): 94.3%
- viability, T/C (second compound 0.00316 µM, first compound 0.1 µM): 81.4%
- viability, T/C (second compound 0.01 µM, first compound 0.000316 µM): 71.5%
- viability, T/C (second compound 0.01 µM, first compound 0.001 µM): 77.9%
- viability, T/C (second compound 0.01 µM, first compound 0.00316 µM): 82.6%
- viability, T/C (second compound 0.01 µM, first compound 0.01 µM): 78%
- viability, T/C (second compound 0.01 µM, first compound 0.0316 µM): 76.9%
- viability, T/C (second compound 0.01 µM, first compound 0.1 µM): 66.6%
- viability, T/C (second compound 0.0316 µM, first compound 0.000316 µM): 40.5%
- viability, T/C (second compound 0.0316 µM, first compound 0.001 µM): 40.2%
- viability, T/C (second compound 0.0316 µM, first compound 0.00316 µM): 36.7%
- viability, T/C (second compound 0.0316 µM, first compound 0.01 µM): 40.6%
- viability, T/C (second compound 0.0316 µM, first compound 0.0316 µM): 38.2%
- viability, T/C (second compound 0.0316 µM, first compound 0.1 µM): 37.1%
- viability, T/C (second compound 0.1 µM, first compound 0.000316 µM): 20.1%
- viability, T/C (second compound 0.1 µM, first compound 0.001 µM): 17.4%
- viability, T/C (second compound 0.1 µM, first compound 0.00316 µM): 18.9%
- viability, T/C (second compound 0.1 µM, first compound 0.01 µM): 19.3%
- viability, T/C (second compound 0.1 µM, first compound 0.0316 µM): 17.6%
- viability, T/C (second compound 0.1 µM, first compound 0.1 µM): 18.4%
- viability, T/C (second compound 0.316 µM, first compound 0.000316 µM): 6.83%
- viability, T/C (second compound 0.316 µM, first compound 0.001 µM): 6.01%
- viability, T/C (second compound 0.316 µM, first compound 0.00316 µM): 6.03%
- viability, T/C (second compound 0.316 µM, first compound 0.01 µM): 7.86%
- viability, T/C (second compound 0.316 µM, first compound 0.0316 µM): 7.33%
- viability, T/C (second compound 0.316 µM, first compound 0.1 µM): 5.96%
- viability, T/C (second compound 1 µM, first compound 0.000316 µM): 1.78%
- viability, T/C (second compound 1 µM, first compound 0.001 µM): 1.73%
- viability, T/C (second compound 1 µM, first compound 0.00316 µM): 1.47%
- viability, T/C (second compound 1 µM, first compound 0.01 µM): 1.54%
- viability, T/C (second compound 1 µM, first compound 0.0316 µM): 2.14%
- viability, T/C (second compound 1 µM, first compound 0.1 µM): 1.68%
